One compound from patent publication US8759504B2, “Cholinergic/serotoninergic receptor and uses thereof” (AbbVie Inc., priority 2007, dated 2014) can be followed below.

The target of one assay is Chimera 2 (Homo sapiens, UniProt P36544, M226I/T225V). Put plainly: [3H]A-585539 radioligand binding, HEK-293 membranes/homogenates. Also on record: expressed in transfected cells.
The next assay concerns the target Chimera 1 (Homo sapiens, UniProt P36544, M226I/T225V). Put plainly: [3H]A-585539 radioligand binding, HEK-293 membranes. Also on record: expressed in transfected cells. The following applies: membranes of HEK-293 cells expressing Chimera 1; read-out: Radioligand Binding KD ± SEM.

Like-named read-outs stand apart in the source and are kept apart here.

Chimera 2, sequence (P36544 with tags, fused parts or gaps T225V/M226I): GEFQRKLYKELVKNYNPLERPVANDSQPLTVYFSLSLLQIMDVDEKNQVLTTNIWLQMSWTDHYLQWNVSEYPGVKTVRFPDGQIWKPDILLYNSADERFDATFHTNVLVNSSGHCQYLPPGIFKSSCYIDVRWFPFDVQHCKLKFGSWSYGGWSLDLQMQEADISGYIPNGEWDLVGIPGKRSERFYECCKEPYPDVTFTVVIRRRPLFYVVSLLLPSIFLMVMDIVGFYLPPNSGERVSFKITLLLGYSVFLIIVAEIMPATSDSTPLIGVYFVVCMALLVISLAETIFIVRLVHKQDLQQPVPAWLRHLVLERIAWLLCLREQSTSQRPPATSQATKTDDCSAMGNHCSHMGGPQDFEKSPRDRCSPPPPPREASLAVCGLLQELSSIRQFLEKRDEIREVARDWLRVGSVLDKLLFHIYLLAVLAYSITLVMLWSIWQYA
Chimera 1, sequence (P36544 with tags, fused parts or gaps T225V/M226I): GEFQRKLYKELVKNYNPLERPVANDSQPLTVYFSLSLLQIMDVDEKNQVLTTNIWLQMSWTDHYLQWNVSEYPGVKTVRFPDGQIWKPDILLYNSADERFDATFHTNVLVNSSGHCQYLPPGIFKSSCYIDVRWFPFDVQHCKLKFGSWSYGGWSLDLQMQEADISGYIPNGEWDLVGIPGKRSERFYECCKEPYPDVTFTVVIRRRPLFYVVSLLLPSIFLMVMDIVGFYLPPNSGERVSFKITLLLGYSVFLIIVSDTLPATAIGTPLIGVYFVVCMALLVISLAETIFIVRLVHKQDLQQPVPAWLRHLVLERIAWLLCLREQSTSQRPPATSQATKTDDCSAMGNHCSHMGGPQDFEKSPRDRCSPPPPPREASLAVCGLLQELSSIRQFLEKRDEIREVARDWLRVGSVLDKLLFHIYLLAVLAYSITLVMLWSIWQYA

For `C[N+]1(C)C[C@@H]2C[C@H]1CN2c1ccc(-c2ccccc2)nn1.[I-]` [[^3H]A585539, [^3H]-(S,S)-2,2-dimethyl-5-(6-phenyl-pyridazin-3-yl)-5-aza-2-azonia-bicyclo[2.2.1]heptane iodide], the “Bmax, saturation binding” value at Chimera 2 (10 μM genistein, 4 μg/well) is recorded as 6058.0±809.3 fmol/mg protein; on Chimera 2 (10 μM genistein, 20 μg/well), 7251.0±587.8 fmol/mg protein; on Chimera 2 (without genistein, 4 μg/well), 5979.0±530.3 fmol/mg protein; at Chimera 2 (without genistein, 20 μg/well), 7016.0±798.2 fmol/mg protein. For the same compound, the Kd stood at 0.1 ± 0.01 nM at Chimera 2 (10 μM genistein, 4 μg/well, read-out: Kd, saturation binding); 0.18 ± 0.01 nM on Chimera 2 (10 μM genistein, 20 μg/well, read-out: Kd, saturation binding); 0.15 nM on Chimera 2 (absence of genistein, read-out: Kd, representative saturation binding); 0.17 nM on Chimera 2 (membranes of HEK-293 cells expressing Chimera 2, read-out: Radioligand Binding KD ± SEM); 0.17 nM on Chimera 2 (presence of 10 μM genistein, read-out: Kd, representative saturation binding); 0.11 ± 0.01 nM on Chimera 2 (without genistein, 4 μg/well, read-out: Kd, saturation binding). Further, the Kd on Chimera 2 (without genistein, 20 μg/well, read-out: Kd, saturation binding) was 0.17 ± 0.02 nM; at Chimera 1, 0.65 nM. Also, the “Bmax, representative saturation binding” value on Chimera 2 (absence of genistein) stood at 6014 fmol/mg protein; on Chimera 2 (presence of 10 μM genistein) it was 6528 fmol/mg protein. Moreover, the Bmax on Chimera 2 (homogenates of HEK-293-Chimera 2 cells) came out at 29167 fmol/mg protein.
